Source: ChEMBL document CHEMBL5291721, “A preclinical secondary pharmacology resource illuminates target-adverse drug reaction associations of marketed drugs” (Nat Commun, 2023)

Tests used:
[1] = target: T1, Muscarinic acetylcholine receptor M2 (Homo sapiens, UniProt P08172); type: functional, cell-based
T1 sequence (P08172 whole entry): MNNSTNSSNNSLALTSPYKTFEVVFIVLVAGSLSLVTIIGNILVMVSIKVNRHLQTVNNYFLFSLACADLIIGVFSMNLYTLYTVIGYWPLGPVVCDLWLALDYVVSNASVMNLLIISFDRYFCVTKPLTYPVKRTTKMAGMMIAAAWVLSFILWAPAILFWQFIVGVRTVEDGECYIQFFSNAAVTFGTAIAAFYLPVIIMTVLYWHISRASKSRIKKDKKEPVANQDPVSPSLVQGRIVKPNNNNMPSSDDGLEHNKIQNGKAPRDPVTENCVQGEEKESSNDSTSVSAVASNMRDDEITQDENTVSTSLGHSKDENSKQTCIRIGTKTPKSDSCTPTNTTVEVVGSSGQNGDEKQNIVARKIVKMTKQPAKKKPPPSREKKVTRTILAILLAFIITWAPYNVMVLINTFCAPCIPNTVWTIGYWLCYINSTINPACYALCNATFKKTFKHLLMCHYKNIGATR

[2] = target: T2, Alpha-1A adrenergic receptor (Homo sapiens, UniProt P35348); type: functional, cell-based
T2 sequence (P35348 whole entry): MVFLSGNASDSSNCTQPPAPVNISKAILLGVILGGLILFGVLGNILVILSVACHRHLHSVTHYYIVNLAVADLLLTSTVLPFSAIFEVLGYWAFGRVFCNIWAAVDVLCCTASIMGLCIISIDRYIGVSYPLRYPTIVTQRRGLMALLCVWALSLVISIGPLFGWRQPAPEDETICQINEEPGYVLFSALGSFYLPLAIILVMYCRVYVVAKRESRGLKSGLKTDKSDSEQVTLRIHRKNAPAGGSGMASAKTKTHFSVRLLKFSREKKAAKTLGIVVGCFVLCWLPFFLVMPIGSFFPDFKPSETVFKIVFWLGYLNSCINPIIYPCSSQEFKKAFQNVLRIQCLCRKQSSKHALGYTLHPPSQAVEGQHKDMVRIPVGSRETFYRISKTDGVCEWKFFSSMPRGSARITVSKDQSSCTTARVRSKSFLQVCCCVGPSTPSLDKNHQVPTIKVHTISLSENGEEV

[3] = target: Beta-1 adrenergic receptor (Homo sapiens, UniProt P08588); type: functional
Chain of Beta-1 adrenergic receptor (P08588 whole entry): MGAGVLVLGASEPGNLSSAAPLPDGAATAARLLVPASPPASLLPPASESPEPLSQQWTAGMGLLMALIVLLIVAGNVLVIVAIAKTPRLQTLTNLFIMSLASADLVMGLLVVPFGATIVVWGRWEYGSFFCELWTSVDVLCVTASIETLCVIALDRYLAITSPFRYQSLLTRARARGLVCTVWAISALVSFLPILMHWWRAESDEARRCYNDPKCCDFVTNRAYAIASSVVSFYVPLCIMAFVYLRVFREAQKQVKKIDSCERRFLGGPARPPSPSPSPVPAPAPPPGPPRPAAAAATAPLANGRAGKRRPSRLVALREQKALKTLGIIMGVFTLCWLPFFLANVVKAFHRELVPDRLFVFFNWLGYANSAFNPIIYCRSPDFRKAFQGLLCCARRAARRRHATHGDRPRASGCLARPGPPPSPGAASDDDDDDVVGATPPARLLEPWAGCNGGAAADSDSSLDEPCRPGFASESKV

[4] = target: Vasopressin V1a receptor (Homo sapiens, UniProt P37288)
Chain of Vasopressin V1a receptor (P37288 whole entry): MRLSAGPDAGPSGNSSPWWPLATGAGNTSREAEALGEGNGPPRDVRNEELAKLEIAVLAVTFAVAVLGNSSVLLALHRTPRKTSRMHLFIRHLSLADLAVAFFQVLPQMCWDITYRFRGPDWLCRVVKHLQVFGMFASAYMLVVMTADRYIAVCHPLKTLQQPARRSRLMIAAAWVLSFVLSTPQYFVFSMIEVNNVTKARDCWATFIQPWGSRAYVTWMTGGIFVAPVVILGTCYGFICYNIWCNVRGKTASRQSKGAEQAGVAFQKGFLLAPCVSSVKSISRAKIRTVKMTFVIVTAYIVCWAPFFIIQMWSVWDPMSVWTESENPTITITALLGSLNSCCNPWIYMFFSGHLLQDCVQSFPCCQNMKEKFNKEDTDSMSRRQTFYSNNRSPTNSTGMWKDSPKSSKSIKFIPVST

[5] = target: T3, Adenosine receptor A3 (Homo sapiens, UniProt P0DMS8)
T3 sequence (P0DMS8 whole entry): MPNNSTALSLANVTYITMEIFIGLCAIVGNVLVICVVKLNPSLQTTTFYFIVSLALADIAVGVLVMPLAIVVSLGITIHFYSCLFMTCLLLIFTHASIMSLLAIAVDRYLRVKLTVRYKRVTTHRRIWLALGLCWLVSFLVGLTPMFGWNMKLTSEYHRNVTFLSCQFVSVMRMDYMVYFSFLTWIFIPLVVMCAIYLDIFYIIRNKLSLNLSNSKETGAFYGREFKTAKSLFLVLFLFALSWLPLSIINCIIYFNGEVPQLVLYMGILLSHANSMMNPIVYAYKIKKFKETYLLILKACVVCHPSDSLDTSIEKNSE

[6] = target: T4, Progesterone receptor (Homo sapiens, UniProt P06401); type: functional
T4 sequence (P06401 whole entry): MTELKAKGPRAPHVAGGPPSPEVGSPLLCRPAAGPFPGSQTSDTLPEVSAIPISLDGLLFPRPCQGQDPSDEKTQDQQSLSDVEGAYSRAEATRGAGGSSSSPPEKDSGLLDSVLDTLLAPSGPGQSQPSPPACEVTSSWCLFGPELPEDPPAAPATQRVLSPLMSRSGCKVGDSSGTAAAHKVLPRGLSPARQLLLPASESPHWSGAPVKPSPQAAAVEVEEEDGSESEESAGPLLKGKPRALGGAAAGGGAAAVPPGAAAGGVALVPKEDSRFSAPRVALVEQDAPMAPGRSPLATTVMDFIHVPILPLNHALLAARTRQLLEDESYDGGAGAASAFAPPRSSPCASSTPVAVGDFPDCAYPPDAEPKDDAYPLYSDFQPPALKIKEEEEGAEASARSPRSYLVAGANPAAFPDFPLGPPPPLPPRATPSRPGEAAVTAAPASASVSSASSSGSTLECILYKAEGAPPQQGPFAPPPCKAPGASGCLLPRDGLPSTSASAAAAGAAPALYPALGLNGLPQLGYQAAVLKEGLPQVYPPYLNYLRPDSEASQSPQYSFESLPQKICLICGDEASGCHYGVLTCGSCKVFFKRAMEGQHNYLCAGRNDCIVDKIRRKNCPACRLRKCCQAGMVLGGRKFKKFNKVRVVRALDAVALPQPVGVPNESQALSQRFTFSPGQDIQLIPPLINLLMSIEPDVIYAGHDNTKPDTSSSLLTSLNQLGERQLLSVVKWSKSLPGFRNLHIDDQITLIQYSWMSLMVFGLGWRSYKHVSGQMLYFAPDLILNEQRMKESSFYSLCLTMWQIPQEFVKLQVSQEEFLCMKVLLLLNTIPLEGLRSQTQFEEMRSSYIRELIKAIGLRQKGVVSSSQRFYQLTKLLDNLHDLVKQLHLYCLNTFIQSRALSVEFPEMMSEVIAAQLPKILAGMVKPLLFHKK

[7] = target: T5, Neuropeptide Y receptor type 1 (Homo sapiens, UniProt P25929)
T5 sequence (P25929 whole entry): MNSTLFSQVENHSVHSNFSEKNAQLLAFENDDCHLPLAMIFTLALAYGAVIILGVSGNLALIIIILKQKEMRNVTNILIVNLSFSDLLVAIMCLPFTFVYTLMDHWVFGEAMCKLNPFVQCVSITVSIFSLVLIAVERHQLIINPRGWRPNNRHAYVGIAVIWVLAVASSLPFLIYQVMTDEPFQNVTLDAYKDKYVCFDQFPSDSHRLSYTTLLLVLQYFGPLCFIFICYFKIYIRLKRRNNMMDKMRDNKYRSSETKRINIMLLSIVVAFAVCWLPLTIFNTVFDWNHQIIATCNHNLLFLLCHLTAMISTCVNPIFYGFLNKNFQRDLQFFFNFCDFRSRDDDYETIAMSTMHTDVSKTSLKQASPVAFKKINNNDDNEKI
Note: assay procedure not described here.

Row | SMILES | AC50 [1] [µM] | AC50 [2] [µM] | AC50 [3] [µM] | AC50 [4] [µM] | AC50 [5] [µM] | AC50 [6] [µM] | AC50 [7] [µM]
1 | CC(=N)N1CC[C@H](SC2=C(C(=O)O)N3C(=O)[C@H]([C@@H](C)O)[C@H]3C2)C1 | > 300 | > 300 | 230 | > 300 | 140 | > 300 | 
2 | O=C1CN2Cc3c(ccc(Cl)c3Cl)N=C2N1 [ANAGRELIDE] | > 10 | > 30 | > 10 | > 30 | > 30 |  | > 30
3 | CNCC[C@@H](Oc1ccccc1C)c1ccccc1 [ATOMOXETINE] |  | > 30 | > 30 | > 30 | > 30 | > 30 | 
4 | CCc1oc2ccccc2c1C(=O)c1cc(Br)c(O)c(Br)c1 [BENZBROMARONE] | 14 | > 30 | 29 | > 30 | 4.19 | 3.8 | 
5 | C=C(C)[C@@H]1CCC(C)=C[C@H]1c1c(O)cc(CCCCC)cc1O [CANNABIDIOL] | 8 | > 30 | > 30 | > 30 |  | > 10 | 
6 | CO/N=C(\C(=O)N[C@@H]1C(=O)N2C(C(=O)O)=C(COC(N)=O)CS[C@H]12)c1ccco1 [CEFUROXIME] | > 30 | > 30 | > 30 | > 30 | > 30 |  | > 30
7 | [H]/N=C(\N/C(=N/[H])NCCCCCCNC(=N)NC(=N)Nc1ccc(Cl)cc1)Nc1ccc(Cl)cc1 [CHLORHEXIDINE] |  | > 30 | 1.4 | 14.7 | 4.1 | 21.9 | 2.2
8 | Clc1cccc(Cl)c1N=C1NCCN1 [CLONIDINE] | > 10 |  | > 10 | > 10 | > 30 |  | > 30
9 | CN1C[C@H](C(=O)N[C@]2(C)O[C@@]3(O)[C@@H]4CCCN4C(=O)[C@H](Cc4ccccc4)N3C2=O)C[C@@H]2c3cccc4[nH]cc(c34)C[C@H]21 [DIHYDROERGOTAMINE] | > 10 | 1.7 | > 10 | > 30 | > 30 |  | > 30
10 | CNCC[C@H](Oc1cccc2ccccc12)c1cccs1 [DULOXETINE] | > 10 |  | 15 | > 30 | > 30 |  | > 30
11 | CC1(C)O[C@@H]2C[C@H]3[C@@H]4C[C@H](F)C5=CC(=O)C=C[C@]5(C)[C@H]4[C@@H](O)C[C@]3(C)[C@]2(C(=O)CO)O1 [FLUNISOLIDE] | > 30 | > 30 | > 30 |  | > 30 | > 3 | 
12 | Nc1nc(O)c2ncn(COC(CO)CO)c2n1 [GANCICLOVIR] | > 30 | > 30 | > 30 |  | > 30 | > 30 | > 30
13 | C[C@H]1Oc2cc(cnc2N)-c2c(nn(C)c2C#N)CN(C)C(=O)c2ccc(F)cc21 [LORLATINIB] | > 30 | > 30 | > 30 | > 30 | 1.2 | > 30 | 
14 | Cc1cnc(NC(=O)C2=C(O)c3ccccc3S(=O)(=O)N2C)s1 [MELOXICAM] | > 10 | > 30 | > 10 | > 10 | > 30 |  | > 30
15 | CC[C@@H](CO)NC(=O)[C@@H]1C=C2c3cccc4[nH]cc(c34)C[C@H]2N(C)C1 [METHYLERGONOVINE] | > 30 | 0.02 |  | > 30 | > 30 |  | > 30
16 | COc1ccnc(C[S+]([O-])c2nc3ccc(OC(F)F)cc3[nH]2)c1OC (stereo not given) [PANTOPRAZOLE] | > 10 | > 30 | > 10 | > 10 |  |  | > 30
17 | COc1ccc(Cc2nccc3cc(OC)c(OC)cc23)cc1OC [PAPAVERINE] | > 30 | > 30 | > 30 |  | > 30 | > 30 | > 30
18 | CC(C)C[C@H](CN)CC(=O)O [PREGABALIN] | > 30 |  | > 30 | > 30 | > 30 | > 30 | > 30
19 | CCOc1cc(CC(=O)N[C@@H](CC(C)C)c2ccccc2N2CCCCC2)ccc1C(=O)O [REPAGLINIDE] | > 30 | 27 | > 30 | > 30 | 22 | > 30 | 
20 | NC(=O)c1ncn([C@@H]2O[C@H](CO)[C@@H](O)[C@H]2O)n1 [RIBAVIRIN] | > 10 | > 30 | > 10 |  | > 10 | > 10 | > 10
21 | O=C(Nc1c(Cl)cncc1Cl)c1ccc(OC(F)F)c(OCC2CC2)c1 [ROFLUMILAST] | > 30 | > 30 | > 30 | > 30 | > 30 |  | > 30
22 | CCCN(CCc1cccs1)[C@H]1CCc2c(O)cccc2C1 [ROTIGOTINE] | > 10 |  | > 30 | > 30 | 24 | > 30 | 
23 | CC[C@H]1OC(=O)[C@H](C)[C@@H](O[C@H]2C[C@@](C)(OC)[C@@H](O)[C@H](C)O2)[C@H](C)[C@@H](O[C@@H]2O[C@H](C)C[C@H](N(C)C)[C@H]2O)[C@](C)(O)C[C@@H](C)/C(=N\OCOCCOC)[C@H](C)[C@@H](O)[C@]1(C)O [ROXITHROMYCIN] | > 30 | > 30 | > 30 |  | > 30 | > 30 | 
24 | CC(=O)S[C@@H]1CC2=CC(=O)CC[C@]2(C)[C@H]2CC[C@@]3(C)[C@@H](CC[C@@]34CCC(=O)O4)[C@H]12 [SPIRONOLACTONE] | > 30 | > 30 | > 30 | > 30 | > 30 |  | > 30
